In patent US8420830B2, “Macrocyclic factor VIIa inhibitors useful as anticoagulants” (Bristol-Myers Squibb Company, priority 2006, dated 2013):
Values joined by “and” are separate entries in the source; they are usually repeats but may differ in a detail not shown here. Identical values can stand only once. Counter-ions that a name gives are not always drawn. Like-named read-outs stand apart in the source and are kept apart here.

How the values were obtained:
[1] = amide bond, BOP, CH2Cl2, 40.0 °C
[2] = amide bond; 16-membered ring; TFA; BOP/DMAP/Et3N; CH2Cl2/DMF; 40.0 °C; 2 steps
[3] = test system: patients undergoing coronary angioplasty; conditions: cited from earlier work
[4] = test system: patients with acute coronary syndromes; conditions: cited from earlier work
[5] = test system: patients undergoing total knee replacement; conditions: cited from earlier work
Factor VIIa = target: T1, Factor VIIa (Homo sapiens, UniProt P08709); assay: Factor VIIa assay; format: biochemical; conditions: measured in the Factor VIIa assay described above; several values in a cell are repeat determinations
T1 construct: purchased Haematologic Technologies (purified) or Novo Nordisk (recombinant)
T1 sequence (P08709 213-466 limits assumed): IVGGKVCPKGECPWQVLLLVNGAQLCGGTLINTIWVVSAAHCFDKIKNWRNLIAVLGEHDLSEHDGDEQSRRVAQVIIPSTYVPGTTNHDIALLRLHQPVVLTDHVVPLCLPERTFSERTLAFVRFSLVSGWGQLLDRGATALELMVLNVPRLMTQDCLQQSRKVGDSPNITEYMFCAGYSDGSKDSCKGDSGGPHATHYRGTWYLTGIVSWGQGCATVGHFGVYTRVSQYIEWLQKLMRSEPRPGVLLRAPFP
T1 sequence (P08709 61-212 limits assumed): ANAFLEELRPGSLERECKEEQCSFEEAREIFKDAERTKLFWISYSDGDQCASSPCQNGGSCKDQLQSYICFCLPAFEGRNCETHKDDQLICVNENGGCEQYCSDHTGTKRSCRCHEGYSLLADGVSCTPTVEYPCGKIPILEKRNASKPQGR
T1 sequence (P13726 33-251 partner limits assumed): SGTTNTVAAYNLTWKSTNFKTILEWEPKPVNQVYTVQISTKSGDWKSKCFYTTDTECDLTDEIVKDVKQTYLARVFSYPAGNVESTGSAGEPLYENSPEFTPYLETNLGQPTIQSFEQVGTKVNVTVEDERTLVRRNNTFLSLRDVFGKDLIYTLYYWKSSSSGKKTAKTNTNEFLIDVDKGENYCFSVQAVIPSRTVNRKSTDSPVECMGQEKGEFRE

Q: With `CCS(=O)(=O)c1ccc2cc1CNC(=O)[C@H](Nc1ccc3c(c1)C(=O)NCC3)c1ccc(cc1)CCCC(=O)N2` as the molecule, how does the ring closure, yield of all isomers ([1]; from CCS(=O)(=O)c1ccc(NC(=O)CCCc2ccc(C(Nc3ccc4c(c3)C(=O)NCC4)C(=O)O)cc2)cc1CNC(=O)OC(C)(C)C, 6.0 h, 2 steps) read?
A: 28.4%

Q: What about the ring closure, yield after HPLC [2] of the same molecule?
A: 28.4%

Q: Which systemic thrombin generation [3] does the source give for “recombinant nematode anticoagulant protein c2 [rNAPc2]” here?
A: reduces systemic thrombin generation

Q: And the “magnitude and duration of ischemic events” value [4]?
A: reduces magnitude and duration of ischemic events

Q: What about the deep vein thrombosis [5] of the same molecule?
A: prevents deep vein thrombosis

Q: Which ring closure, yield of all isomers ([1]; from CCS(=O)(=O)c1ccc(NC(=O)CCCc2ccc(C(Nc3ccc4c(c3)C(=O)NC4)C(=O)O)cc2)cc1CNC(=O)OC(C)(C)C, 6.6 mM, 6.0 h, 2 steps) does the source give for `CCS(=O)(=O)c1ccc2cc1CNC(=O)[C@H](Nc1ccc3c(c1)C(=O)NC3)c1ccc(cc1)CCCC(=O)N2` here?
A: 27.7%

Q: For `CCOC(=O)CCN1Cc2cccc(c2)NC(=O)OCCc2c(C)cc(cc2C)[C@@H](Nc2ccc3cc[nH]c(=O)c3c2)C1=O` [Example 144, 3-[17,20-Dimethyl-3,12-dioxo-2-(1-oxo-1,2-dihydro-isoquinolin-7-ylamino)-13-oxa-4,11-diaza-tricyclo[14.2.2.1^6,10]henicosa-1(19),6,8,10(21),16(20),17-hexaen-4-yl]-propionic acid ethyl ester], which Ki (Factor VIIa) is on record?
A: 3100 nM

Q: Which Ki (Factor VIIa) does the source give for `COCCN1Cc2cccc(c2)NC(=O)OC[C@H](C)c2ccc(cc2C)[C@@H](Nc2ccc3cc[nH]c(=O)c3c2)C1=O` [Example 152, (2R,15R)-4-(2-Methoxy-ethyl)-15,17-dimethyl-2-(1-oxo-1,2-dihydro-isoquinolin-7-ylamino)-13-oxa-4,11-diaza-tricyclo[14.2.2.1^6,10]henicosa-1(19),6,8,10(21),16(20),17-hexaene-3,12-dione] here?
A: 1060 nM

Q: For `CC(C)S(=O)(=O)c1ccc2cc1CN(C)C(=O)[C@H](Nc1ccc3c(c1)C(=O)NC3)c1ccc(cc1)CCCC(=O)N2`, which ring closure, yield of all isomers ([1]; from CNCc1cc(NC(=O)CCCc2ccc(C(Nc3ccc4c(c3)C(=O)NC4)C(=O)O)cc2)ccc1S(=O)(=O)C(C)C, 8.05 mM, 16.0 h) is on record?
A: 31.8%

Q: With `Cc1cc2ccc1[C@@H](C)COC(=O)Nc1cccc(c1)CN(CCN)C(=O)[C@@H]2Nc1ccc2cc[nH]c(=O)c2c1` [Example 149, (2R,15R)-4-(2-Amino-ethyl)-15,17-dimethyl-2-(1-oxo-1,2-dihydro-isoquinolin-7-ylamino)-13-oxa-4,11-diaza-tricyclo[14.2.2.1^6,10]henicosa-1(19),6,8,10(21),16(20),17-hexaene-3,12-dione] as the molecule, how does the Ki (Factor VIIa) read?
A: 1210 nM

Q: Which Ki (Factor VIIa) does the source give for `COC(=O)N1CC(=O)Nc2ccc(S(=O)(=O)C(C)C)c(c2)CNC(=O)C(Nc2ccc3nc[nH]c(=O)c3c2)c2cc(C)c(c(C)c2)C1` (stereo not shown) [Example 117, 17,20-Dimethyl-3,12-dioxo-2-(4-oxo-3,4-dihydro-quinazolin-6-ylamino)-7-(propane-2-sulfonyl)-4,11,14-triaza-tricyclo[14.2.2.1^6,10]henicosa-1(19),6,8,10(21),16(20),17-hexaene-14-carboxylic acid methyl ester trifluoroacetate] here?
A: 21.9 nM

Q: Which Ki (Factor VIIa) does the source give for `Cc1cc2ccc1[C@@H](C)COC(=O)Nc1cccc(c1)[C@@H](C)NC(=O)[C@@H]2Nc1ccc2cc[nH]c(=O)c2c1` [Example 158] here?
A: 27.1 nM and 97.5 nM

Q: Which ring closure, yield of all isomers ([1]; from CNCc1cc(NC(=O)CCCc2ccc(C(Nc3ccc4c(c3)C(=O)NCC4)C(=O)O)cc2)ccc1S(=O)(=O)C(C)C, 5.11 mM, 7.0 h) does the source give for `CC(C)S(=O)(=O)c1ccc2cc1CN(C)C(=O)[C@H](Nc1ccc3c(c1)C(=O)NCC3)c1ccc(cc1)CCCC(=O)N2` here?
A: 19.9%
